In patent US12655116B2, “Substituted isophthalic acid diamides” (Bayer Aktiengesellschaft, priority 2020, dated 2026):

How the values were obtained:
[1] = test system: AVEFA; test: Pre-emergence herbicidal action against AVEFA; assay type: in vivo, Avena fatua; settings: for Pre-emergence action against AVEFA in %: 80 g/ha
Procedure, shortened: (§1)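 Pre-emergence soil-surface spray of formulated compound (WP or EC; 600 to 800 l/ha; 0.2% wetting agent) over seeds sown in sandy loam. After 3 weeks under greenhouse conditions, damage is estimated visually in percent against untreated plants.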

[2] = test system: AMARE; test: Post-emergence herbicidal action against AMARE; assay type: in vivo, Amaranthus retroflexus; settings: 20 g/ha, visual assessment about 3 weeks after treatment, 100% = plants have died, 0% = like control plants
Procedure, shortened: (§2)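 Greenhouse plants in sandy loam were sprayed at the one-leaf stage, 2 to 3 weeks after sowing, with WP or EC formulations as aqueous suspension or emulsion (600 to 800 l/ha water, 0.2% wetting agent). Visual damage was scored about 3 weeks later versus untreated controls, 0% = like control, 100% = dead.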

[3] = test system: AMARE; test: Pre-emergence herbicidal action against AMARE; assay type: in vivo, Amaranthus retroflexus
Procedure, shortened: as §1

[4] = test system: DIGSA; test: Pre-emergence herbicidal action against DIGSA; assay type: in vivo, Digitaria sanguinalis
Procedure, shortened: as §1

[5] = test system: ALOMY; test: Post-emergence herbicidal action against ALOMY; assay type: in vivo, Alopecurus myosuroides; settings: visual assessment about 3 weeks after treatment vs untreated controls
Procedure, shortened: as §2

[6] = test system: SETVI; test: Post-emergence herbicidal action against SETVI; assay type: in vivo, Setaria viridis
Procedure, shortened: as §2

[7] = test system: VIOTR; test: Post-emergence herbicidal action against VIOTR; assay type: in vivo, Viola tricolor
Procedure, shortened: as §2

[8] = test system: MATIN; test: Pre-emergence herbicidal action against MATIN; assay type: in vivo, Matricaria inodora
Procedure, shortened: as §1

[9] = test system: VERPE; test: Pre-emergence herbicidal action against VERPE; assay type: in vivo, Veronica persica; settings: dosage 80 g/ha
Procedure, shortened: as §1

[10] = test system: ECHCG; test: Pre-emergence herbicidal action against ECHCG; assay type: in vivo, Echinochloa crus-galli
Procedure, shortened: as §1

[11] = test system: VIOTR; test: Pre-emergence herbicidal action against VIOTR; assay type: in vivo, Viola tricolor
Procedure, shortened: as §1

[12] = test system: MATIN; test: Post-emergence herbicidal action against MATIN; assay type: in vivo, Matricaria inodora
Procedure, shortened: as §2

[13] = test system: VERPE; test: Post-emergence herbicidal action against VERPE; assay type: in vivo, Veronica persica; settings: 20 g/ha
Procedure, shortened: as §2

[14] = test system: ABUTH; test: Pre-emergence herbicidal action against ABUTH; assay type: in vivo, Abutilon theophrasti; settings: for Pre-emergence action against ABUTH (herbicidal activity): 80 g/ha, scored visually after 3 weeks vs untreated controls (100% = plants have died, 0% = like control plants); for Pre-emergence action against ABUTH (herbicidal activity in percent): dosage 20 g/ha, scored visually after 3 weeks vs untreated controls, 100% = plants have died, 0% = like control plants
Procedure, shortened: as §1

[15] = test system: PHBPU; test: Post-emergence herbicidal action against PHBPU; assay type: in vivo, Pharbitis purpurea
Procedure, shortened: as §2

[16] = test system: DIGSA; test: Post-emergence herbicidal action against DIGSA; assay type: in vivo, Digitaria sanguinalis; settings: for Post-emergence action against DIGSA in %: 5 g/ha; for Post-emergence action against DIGSA: 20 g/ha
Procedure, shortened: as §2

[17] = test system: ABUTH; test: Post-emergence herbicidal action against ABUTH; assay type: in vivo, Abutilon theophrasti; settings: visual assessment about 3 weeks after treatment vs untreated controls
Procedure, shortened: as §2

[18] = test system: SETVI; test: Pre-emergence herbicidal action against SETVI; assay type: in vivo, Setaria viridis
Procedure, shortened: as §1

[19] = test system: ECHCG; test: Post-emergence herbicidal action against ECHCG; assay type: in vivo, Echinochloa crus-galli
Procedure, shortened: as §2

[20] = test system: PHBPU; test: Pre-emergence herbicidal action against PHBPU; assay type: in vivo, Pharbitis purpurea
Procedure, shortened: as §1

[21] = test system: ALOMY; test: Pre-emergence herbicidal action against ALOMY; assay type: in vivo, Alopecurus myosuroides; settings: 80 g/ha, pre-emergence, scored visually after 3 weeks vs untreated controls (100% = plants have died, 0% = like control plants)
Procedure, shortened: as §1

[22] = test system: POLCO; test: Pre-emergence herbicidal action against POLCO; assay type: in vivo, Polygonum convolvulus; settings: dosage 80 g/ha
Procedure, shortened: as §1

[23] = test system: AVEFA; test: Post-emergence herbicidal action against AVEFA; assay type: in vivo, Avena fatua; settings: 20 g/ha, visual assessment about 3 weeks after treatment, 100% = plants have died, 0% = like control plants
Procedure, shortened: as §2

[24] = test system: STEME; test: Post-emergence herbicidal action against STEME; assay type: in vivo, Stellaria media; settings: 20 g/ha
Description: Seeds of monocotyledonous and dicotyledonous weed and crop plants are laid out in sandy loam soil in wood-fiber pots, covered with soil and cultivated in a greenhouse under good growth conditions. 2 to 3 weeks after sowing, the test plants are treated at the one-leaf stage. The compounds of the invention, formulated in the form of wettable powders (WP) or as emulsion concentrates (EC), are then sprayed onto the green parts of the plants in the form of an aqueous suspension or emulsion at a water application rate equivalent to 600 to 800 l/ha, with addition of 0.2% wetting agent. After the test plants have been left to stand in the greenhouse under optimal growth conditions for about 3 weeks, the action of the preparations is assessed visually in comparison to untreated controls (herbicidal action in percent (%): 100% activity=the plants have died, 0% activity=like control plants). […] The tables below illustrate, in an illustrative manner, the post-emergence herbicidal action of the compounds of the invention, the herbicidal activity being stated in percent.

[25] = test system: STEME; test: Pre-emergence herbicidal action against STEME; assay type: in vivo, Stellaria media; settings: dosage 80 g/ha
Text: Seeds of monocotyledonous and dicotyledonous weed plants and crop plants are laid out in sandy loam soil in wood-fiber pots and covered with soil. The compounds of the invention, formulated in the form of wettable powders (WP) or as emulsion concentrates (EC), are then applied to the surface of the covering soil in the form of an aqueous suspension or emulsion at a water application rate equivalent to 600 to 800 l/ha, with addition of 0.2% wetting agent. After the treatment, the pots are placed in a greenhouse and kept under good growth conditions for the trial plants. The damage to the test plants is scored visually after a test period of 3 weeks by comparison with untreated controls (herbicidal activity in percent (%): 100% activity=the plants have died, 0% activity=like control plants). […] The tables below illustrate, in an illustrative manner, the post-emergence herbicidal action of the compounds of the invention, the herbicidal activity being stated in percent.

[26] = 20 g/ha, scored visually after 3 weeks vs untreated controls, 100% = plants have died, 0% = like control plants
[27] = 80 g/ha, scored visually after 3 weeks vs untreated controls (100% = plants have died, 0% = like control plants)

Structure (SMILES)	Pre-emergence action against AVEFA in % [1] [%]	Post-emergence action at 20 g/ha against AMARE in % [2] [%]	Pre-emergence action against AMARE in % [3, 26] [%]	Pre-emergence action against AMARE in % [3, 27] [%]	Pre-emergence action against DIGSA in % ([4]; dosage 20 g/ha) [%]	Pre-emergence action against DIGSA in % ([4]; dosage 80 g/ha) [%]	Post-emergence action against ALOMY in % ([5]; dosage 20 g/ha) [%]	Post-emergence action against SETVI in % ([6]; dosage 5 g/ha) [%]	Post-emergence action against SETVI in % ([6]; dosage 20 g/ha) [%]	Post-emergence action against VIOTR in % ([7]; 5 g/ha) [%]	Pre-emergence action against MATIN in % ([8]; dosage 20 g/ha) [%]	Pre-emergence action against MATIN in % ([8]; dosage 80 g/ha) [%]	Pre-emergence action against ECHCG in % ([10]; 80 g/ha) [%]	Pre-emergence action against VIOTR in % ([11]; dosage 80 g/ha) [%]	Pre-emergence action against ABUTH (herbicidal activity) [14] [%]	Pre-emergence action against ABUTH (herbicidal activity in percent) [14] [%]	Post-emergence action against DIGSA [16] [%]	Post-emergence action against ABUTH in % ([17]; dosage 20 g/ha) [%]	Pre-emergence action against SETVI in % ([18]; dosage 80 g/ha) [%]	Post-emergence action against ECHCG in % ([19]; dosage 20 g/ha) [%]	other results
CCNC(=O)c1c(C(F)(F)F)ccc(C(=O)Nc2nnnn2CC)c1OC [Example 2-57]	90	100	100	100	100	100	90	100	100	90	90	100	100	100	100	100	100	100	100	100	Post-emergence action against VIOTR in % ([7]; 20 g/ha): 100%; Pre-emergence action against VERPE in % [9]: 90%; Pre-emergence action against ECHCG in % ([10]; 20 g/ha): 90%; Pre-emergence action against VIOTR in % ([11]; dosage 20 g/ha): 100%; Post-emergence action against MATIN in % ([12]; dosage 5 g/ha): 80%; Post-emergence action against MATIN in % ([12]; dosage 20 g/ha): 90%; Post-emergence action against VERPE in % [13]: 90%; Post-emergence action against PHBPU in % ([15]; dosage 5 g/ha): 80%; Post-emergence action against PHBPU in % ([15]; dosage 20 g/ha): 90%; Post-emergence action against DIGSA in % [16]: 90%; Post-emergence action against ABUTH in % ([17]; dosage 5 g/ha): 90%; Pre-emergence action against SETVI in % ([18]; dosage 20 g/ha): 80%; Post-emergence action against ECHCG in % ([19]; dosage 5 g/ha): 100%; Pre-emergence action against PHBPU in % ([20]; dosage 80 g/ha): 80%; Pre-emergence action against ALOMY (herbicidal activity) [21]: 90%; Pre-emergence action against POLCO in % [22]: 90%; Post-emergence action at 20 g/ha against AVEFA in % [23]: 80%
CCNC(=O)c1c(C(F)F)ccc(C(=O)Nc2nnnn2CC)c1Br [Example 2-226]	100	100	100	100	–	–	90	100	100	90	90	100	100	100	80	80	80	90	100	90	Post-emergence action against VIOTR in % ([7]; 20 g/ha): 100%; Pre-emergence action against VERPE in % [9]: 100%; Pre-emergence action against ECHCG in % ([10]; 20 g/ha): 100%; Pre-emergence action against VIOTR in % ([11]; dosage 20 g/ha): 100%; Post-emergence action against MATIN in % ([12]; dosage 20 g/ha): 80%; Post-emergence action against VERPE in % [13]: 90%; Post-emergence action against PHBPU in % ([15]; dosage 20 g/ha): 80%; Pre-emergence action against SETVI in % ([18]; dosage 20 g/ha): 80%; Pre-emergence action against PHBPU in % ([20]; dosage 80 g/ha): 100%; Pre-emergence action against ALOMY (herbicidal activity) [21]: 90%; Pre-emergence action against POLCO in % [22]: 80%; Post-emergence action at 20 g/ha against AVEFA in % [23]: 80%
CCn1nnnc1NC(=O)c1ccc(C(F)(F)F)c(C(=O)NCC(F)F)c1C1CC1 [Example 2-291]	80	90	100	100	100	100	80	–	90	80	90	100	90	100	100	100	100	80	100	80	Pre-emergence action against AVEFA ([1]; 20 g/ha, scored visually after 3 weeks, 100% = plants have died, 0% = like control plants): 80%; Post-emergence action against ALOMY in % ([5]; dosage 5 g/ha): 80%; Post-emergence action against VIOTR in % ([7]; 20 g/ha): 90%; Pre-emergence action against VERPE in % [9]: 90%; Pre-emergence action against VIOTR in % ([11]; dosage 20 g/ha): 100%; Post-emergence action against MATIN in % ([12]; dosage 5 g/ha): 80%; Post-emergence action against MATIN in % ([12]; dosage 20 g/ha): 90%; Post-emergence action against VERPE in % [13]: 80%; Post-emergence action against PHBPU in % ([15]; dosage 5 g/ha): 80%; Post-emergence action against PHBPU in % ([15]; dosage 20 g/ha): 90%; Post-emergence action against DIGSA in % [16]: 90%; Post-emergence action against ABUTH in % ([17]; dosage 5 g/ha): 80%; Post-emergence action against ECHCG in % ([19]; dosage 5 g/ha): 80%; Pre-emergence action against PHBPU in % ([20]; dosage 20 g/ha): 80%; Pre-emergence action against PHBPU in % ([20]; dosage 80 g/ha): 90%; Pre-emergence action against ALOMY (herbicidal activity) [21]: 80%; Pre-emergence action against POLCO in % [22]: 80%; Post-emergence action at 20 g/ha against AVEFA in % [23]: 90%
NC(=O)c1c(C(F)(F)F)ccc(C(=O)Nc2nnco2)c1Cl [Example 5-253]	–	80	100	100	80	90	–	80	80	–	–	–	–	90	100	90	80	90	80	80	Post-emergence action against STEME in % [24]: 80%; Post-emergence action against ABUTH in % ([17]; dosage 5 g/ha): 90%; Pre-emergence action against STEME in % [25]: 90%
Cc1nnc(NC(=O)c2ccc(C(F)F)c(C(=O)NC3CC3)c2C)o1 [Example 6-33]	–	90	90	100	80	100	–	80	80	–	80	90	100	100	90	–	–	80	100	80	Post-emergence action against STEME in % [24]: 80%
